From patent publication US11254668B2, “Pyrazolo[1,5-A]pyrazin-4-yl and related derivatives” (Pfizer Inc., priority 2017, dated 2022)
Read-outs that look alike come from different tables or passages of the source.

How the values were obtained:
Type in all cases: biochemical
JAK1 = JAK1 (Homo sapiens (Human), UniProt P23458); assay: JAK Caliper Enzyme Assay at 1 mM ATP, JAK1
Procedure: (§1) Compounds of the invention were evaluated by in vitro methods to determine their respective ability to inhibit the JAK kinases (TYK2, JAK1, JAK2, JAK3).
(§2) The human JAK inhibitory activity was determined by using a microfluidic assay to monitor phosphorylation of a synthetic peptide by the recombinant human kinase domain of each of the four members of the JAK family, JAK1, JAK2, JAK3 and TYK2. […] Each assay condition was optimized for enzyme concentration and room temperature incubation time to obtain a conversion rate of 20% to 30% phosphorylated peptide product. Reactions were terminated by the addition of stop buffer containing EDTA. Utilizing the LabChip 3000 mobility shift technology (Caliper Life Science), each assay reaction was sampled to determine the level of phosphorylation. This technology is separation-based, allowing direct detection of fluorescently labeled substrates and products. Separations are controlled by a combination of vacuum pressure and electric field strength optimized for each peptide substrate.
(§3) JAK Caliper Enzyme Assay at 1mM ATP
(§4) Compounds were added to a 384-well plate.
(§5) The data was collected using the HTS Well Analyzer software from Caliper Life Sciences. The data output for data analysis is the percent product converted calculated on peak height (Equation 1). % product converted=100*((product)/(product+substrate)) Equation 1: […]
(§6) The percent effect at each compound concentration was calculated based on the positive and negative control well contained within each assay plate (Equation 2). […] The negative control wells contained DMSO alone (at the same concentration as the compound wells) that was used to set the baseline activity in the assay (i.e., uninhibited JAK1, JAK2, JAK3 or TYK2). % effect=100*([…](positive control-negative control)) Equation 2: […]
(§7) The percent effect was plotted against the compound concentration compound.

JAK3 = JAK3 (Homo sapiens (Human), UniProt P52333); assay: JAK Caliper Enzyme Assay at 1 mM ATP, JAK3
Procedure: as §1, §2, §3, §4, §5, §6, §7

TYK2 = TYK2 (Homo sapiens (Human), UniProt P29597); assay: JAK Caliper Enzyme Assay at 1 mM ATP, TYK2
Procedure: as §1, §2, §3, §4, §5, §6, §7

JAK2 = JAK2 (Homo sapiens (Human), UniProt O60674); assay: JAK Caliper Enzyme Assay at 1 mM ATP, JAK2
Procedure: as §1, §2, §3, §4, §5, §6, §7

JAK1, sequence (P23458 875-1153): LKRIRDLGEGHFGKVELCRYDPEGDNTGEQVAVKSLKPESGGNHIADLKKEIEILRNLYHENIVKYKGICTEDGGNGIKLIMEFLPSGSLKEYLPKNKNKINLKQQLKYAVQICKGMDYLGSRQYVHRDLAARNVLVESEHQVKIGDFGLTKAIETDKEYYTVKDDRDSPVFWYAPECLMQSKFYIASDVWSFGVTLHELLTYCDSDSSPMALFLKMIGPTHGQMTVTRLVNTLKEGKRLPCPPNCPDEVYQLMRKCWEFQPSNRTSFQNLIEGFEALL
JAK2, sequence (O60674 849-1124): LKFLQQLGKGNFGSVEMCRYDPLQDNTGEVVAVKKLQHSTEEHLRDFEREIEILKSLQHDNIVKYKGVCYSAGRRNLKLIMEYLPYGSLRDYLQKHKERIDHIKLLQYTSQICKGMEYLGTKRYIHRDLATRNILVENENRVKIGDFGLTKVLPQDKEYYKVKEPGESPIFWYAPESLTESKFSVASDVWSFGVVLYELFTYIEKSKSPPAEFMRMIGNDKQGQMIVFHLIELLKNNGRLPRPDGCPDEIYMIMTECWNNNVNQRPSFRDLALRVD
TYK2, sequence (P29597 897-1176): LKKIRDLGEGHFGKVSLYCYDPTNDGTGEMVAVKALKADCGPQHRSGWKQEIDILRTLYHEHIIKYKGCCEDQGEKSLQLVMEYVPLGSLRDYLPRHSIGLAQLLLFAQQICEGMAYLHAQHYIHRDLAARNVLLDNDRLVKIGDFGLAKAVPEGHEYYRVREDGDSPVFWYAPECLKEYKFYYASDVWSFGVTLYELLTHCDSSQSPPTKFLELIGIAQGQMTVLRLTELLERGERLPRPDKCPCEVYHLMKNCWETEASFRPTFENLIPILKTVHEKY
JAK3, sequence (P52333 822-1111): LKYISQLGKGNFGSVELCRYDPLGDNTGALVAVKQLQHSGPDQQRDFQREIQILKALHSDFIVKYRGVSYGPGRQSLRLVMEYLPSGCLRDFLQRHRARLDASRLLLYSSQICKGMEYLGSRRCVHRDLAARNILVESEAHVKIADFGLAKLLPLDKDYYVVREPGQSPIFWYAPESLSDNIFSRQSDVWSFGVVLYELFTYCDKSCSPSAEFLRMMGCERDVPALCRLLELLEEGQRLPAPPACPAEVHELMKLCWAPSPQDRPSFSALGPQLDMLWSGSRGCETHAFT

Structure (SMILES) | IC50 (JAK1; JAK Caliper enzyme assay) | IC50 (JAK3; JAK Caliper enzyme assay) | IC50 (TYK2; JAK Caliper enzyme assay) | IC50 (JAK2; JAK Caliper enzyme assay) | IC50 (JAK1) | IC50 (JAK3) | IC50 (TYK2) | IC50 (JAK2)
N#CC[C@]1(n2ncc(-c3cc(-c4cc(O)ncc4F)cc4ncccc34)n2)C[C@@H](C#N)C1 [Example 387, cis-3-(cyanomethyl)-3-{4-[7-(5-fluoro-2-hydroxpyridin-4-yl)quinolin-5-yl]-2H-1,2,3-triazol-2-yl}cyclobutanecarbonitrile] | > 10000 nM | > 10000 nM | 4840 nM | > 10000 nM | – | – | – | –
CS(=O)(=O)N1CC(CC#N)(n2ccc(-c3nc(-c4cnc5[nH]c(=O)[nH]c5c4)cc4ncccc34)n2)C1 [Example 169, [1-(methylsulfonyl)-3-{3-[7-(2-oxo-2,3-dihydro-1H-imidazo[4,5-b]pyridin-6-yl)-1,6-naphthyridin-5-yl]-1H-pyrazol-1-yl}azetidin-3-yl]acetonitrile] | – | – | – | – | > 10000 nM | > 10000 nM | 22 nM | 241 nM
Cc1ccn(-c2cc3ncccc3c(-c3ccn(C4(CC#N)CN(CC(F)(F)F)C4)n3)n2)n1 [Example 143, [3-{3-[7-(3-methyl-1H-pyrazol-1-yl)-1,6-naphthyridin-5-yl]-1H-pyrazol-1-yl}-1-(2,2,2-trifluoroethyl)azetidin-3-yl]acetonitrile] | – | – | – | – | > 10000 nM | > 10000 nM | 767 nM | 6670 nM
CO[C@H]1C[C@](CC#N)(n2cc(-c3cc(-c4c[nH]nc4CO)cc4nccn34)cn2)C1 [Example 464, [trans-1-(4-{7-[3-(hydroxymethyl)-1H-pyrazol-4-yl]imidazo[1,2-a]pyridin-5-yl}-1H-pyrazol-1-yl)-3-methoxycyclobutyl]acetonitrile] | > 10000 nM | > 10000 nM | 4660 nM | > 10000 nM | – | – | – | –
N#CCC1(n2ncc(-c3cc(-c4ccc(C(N)=O)cn4)cc4ncccc34)n2)CC(C#N)C1 (stereo not drawn) [Example 351, 6-(5-{2-[trans-3-cyano-1-(cyanomethyl)cyclobutyl]-2H-1,2,3-triazol-4-yl}quinolin-7-yl)pyridine-3-carboxamide] | – | – | – | – | > 10000 nM | > 10000 nM | 131 nM | 688 nM
N#CCC1(n2ncc(-c3cc(-c4cnc5cccnn45)cc4ncccc34)n2)CC(C#N)C1 (stereo not drawn) [Example 421, cis-3-(cyanomethyl)-3-{4-[7-(imidazo[1,2-b]pyridazin-3-yl)quinolin-5-yl]-2H-1,2,3-triazol-2-yl}cyclobutanecarbonitrile] | 1560 nM | > 10000 nM | 113 nM | 353 nM | – | – | – | –
CC(=O)N1CC2(C1)CC(CC#N)(n1ccc(-c3nc(-c4cc[nH]n4)cc4ncccc34)n1)C2 [Example 38, (2-acetyl-6-{3-[7-(1H-pyrazol-3-yl)-1,6-naphthyridin-5-yl]-1H-pyrazol-1-yl}-2-azaspiro[3.3]hept-6-yl)acetonitrile] | – | – | – | – | > 10000 nM | > 10000 nM | 4020 nM | 5630 nM
CS(=O)(=O)N1CC(CC#N)(n2ccc(-c3nc(-c4ccn(C5COC5)n4)cc4ncccc34)n2)C1 [Example 56, [1-(methylsulfonyl)-3-(3-{7-[1-(oxetan-3-yl)-1H-pyrazol-3-yl]-1,6-naphthyridin-5-yl}-1H-pyrazol-1-yl)azetidin-3-yl]acetonitrile] | – | – | – | – | > 10000 nM | > 10000 nM | 225 nM | 1480 nM
N#CC[C@]1(n2ccc(-c3nc(-c4ccc(S(N)(=O)=O)nc4)cc4ncccc34)n2)C[C@H](C#N)C1 [Example 210, 5-(5-{1-[trans-3-cyano-1-(cyanomethyl)cyclobutyl]-1H-pyrazol-3-yl}-1,6-naphthyridin-7-yl)pyridine-2-sulfonamide] | – | – | – | – | 1530 nM | > 10000 nM | 62 nM | 300 nM

The next lines start with the values.

IC50 (JAK1; JAK Caliper enzyme assay) | IC50 (JAK3; JAK Caliper enzyme assay) | IC50 (TYK2; JAK Caliper enzyme assay) | IC50 (JAK2; JAK Caliper enzyme assay) | IC50 (JAK1) | IC50 (JAK3) | IC50 (TYK2) | IC50 (JAK2) | Structure (SMILES)
– | – | – | – | 404 nM | > 10000 nM | 35 nM | 368 nM | CS(=O)(=O)N1CC(CC#N)(n2ccc(-c3nc(-c4cnn5ccccc45)cc4ncccc34)n2)C1 [Example 161, [1-(methylsulfonyl)-3-{3-[7-(pyrazolo[1,5-a]pyridin-3-yl)-1,6-naphthyridin-5-yl]-1H-pyrazol-1-yl}azetidin-3-yl]acetonitrile]
– | – | – | – | 38 nM | 2650 nM | 13 nM | 20 nM | Cc1cc(-c2nc(-c3cn[nH]c3N)cc3ncccc23)nn1[C@]1(CC#N)C[C@@H](C#N)C1 [Example 275, trans-3-{3-[7-(5-amino-1H-pyrazol-4-yl)-1,6-naphthyridin-5-yl]-5-methyl-1H-pyrazol-1-yl}-3-(cyanomethyl)cyclobutanecarbonitrile]
– | – | – | – | 230 nM | 6650 nM | 21 nM | 93 nM | Cc1cc(-c2cc3ncccc3c(-c3ccn([C@]4(CC#N)C[C@H](C#N)C4)n3)n2)cc(N)n1 [Example 221, cis-3-{3-[7-(2-amino-6-methylpyridin-4-yl)-1,6-naphthyridin-5-yl]-1H-pyrazol-1-yl}-3-(cyanomethyl)cyclobutanecarbonitrile]
– | – | – | – | 7060 nM | > 10000 nM | 120 nM | 327 nM | N#CCC1(n2ccc(-c3nc(-c4cnn(C5CNC5)c4)cc4ncccc34)n2)CN(CC(F)(F)F)C1 [Example 115, [3-(3-{7-[1-(azetidin-3-yl)-1H-pyrazol-4-yl]-1,6-naphthyridin-5-yl}-1H-pyrazol-1-yl)-1-(2,2,2-trifluoroethyl)azetidin-3-yl]acetonitrile]
– | – | – | – | 42 nM | 2320 nM | 7 nM | 16 nM | N#CC[C@]1(n2ccc(-c3nc(-c4cc(CO)[nH]n4)cc4ncccc34)n2)C[C@@H](C#N)C1 [Example 49, cis-3-(cyanomethyl)-3-(3-{7-[5-(hydroxymethyl)-1H-pyrazol-3-yl]-1,6-naphthyridin-5-yl}-1H-pyrazol-1-yl)cyclobutanecarbonitrile]
– | – | – | – | 1970 nM | > 10000 nM | 33 nM | 666 nM | N#CCC1(n2ccc(-c3nc(-c4cnc5cc[nH]c5c4)cc4ncccc34)n2)CN(CC(F)(F)F)C1 [Example 158, [3-{3-[7-(1H-pyrrolo[3,2-b]pyridin-6-yl)-1,6-naphthyridin-5-yl]-1H-pyrazol-1-yl}-1-(2,2,2-trifluoroethyl)azetidin-3-yl]acetonitrile]
– | – | – | – | 2100 nM | > 10000 nM | 94 nM | 940 nM | CCN1CC(CC#N)(n2ccc(-c3nc(-c4c[nH]nc4N)cc4ncccc34)n2)C1 [Example 94, (3-{3-[7-(3-amino-1H-pyrazol-4-yl)-1,6-naphthyridin-5-yl]-1H-pyrazol-1-yl}-1-ethylazetidin-3-yl)acetonitrile]
– | – | – | – | 5570 nM | > 10000 nM | 147 nM | 1680 nM | CS(=O)(=O)N1CC(CC#N)(n2ccc(-c3nc(-c4cncc(N)c4)cc4ncccc34)n2)C1 [Example 193]
– | – | – | – | 1280 nM | > 10000 nM | 48 nM | 448 nM | N#CC[C@]1(n2ccc(-c3nc(-c4cnnc(N)c4)cc4ncccc34)n2)C[C@@H](C#N)C1 [Example 240, cis-3-{3-[7-(6-aminopyridazin-4-yl)-1,6-naphthyridin-5-yl]-1H-pyrazol-1-yl}-3-(cyanomethyl)cyclobutanecarbonitrile]
– | – | – | – | 2300 nM | > 10000 nM | 36 nM | 788 nM | CO[C@H]1C[C@@](CC#N)(n2ncc(-c3cc(-c4cc[nH]n4)cc4ncccc34)n2)C1 [Example 304, (cis-3-methoxy-1-{4-[7-(1H-pyrazol-3-yl)quinolin-5-yl]-2H-1,2,3-triazol-2-yl}cyclobutyl)acetonitrile]
– | – | – | – | 64 nM | 1050 nM | 17 nM | 20 nM | N#CC[C@]1(n2ccc(-c3nc(-c4cnn(CCO)c4)cc4ncccc34)n2)C[C@@H](C#N)C1 [Example 127, cis-3-(cyanomethyl)-3-(3-{7-[1-(2-hydroxyethyl)-1H-pyrazol-4-yl]-1,6-naphthyridin-5-yl}-1H-pyrazol-1-yl)cyclobutanecarbonitrile]
– | – | – | – | 2570 nM | > 10000 nM | 207 nM | 1790 nM | N#CCC1(n2ccc(-c3nc(-c4ccn[nH]4)cc4ncccc34)n2)CC(CO)C1 (stereo not drawn) [Example 28, [trans-3-(hydroxymethyl)-1-{3-[7-(1H-pyrazol-5-yl)-1,6-naphthyridin-5-yl]-pyrazol-1-yl}cyclobutyl]acetonitrile]
– | – | – | – | 785 nM | > 10000 nM | 49 nM | 332 nM | Cc1cc(-c2cc3ncccc3c(-c3ccn(C4(CC#N)CN(S(C)(=O)=O)C4)n3)n2)ccn1 [Example 174, [3-{3-[7-(2-methylpyridin-4-yl)-1,6-naphthyridin-5-yl]-1H-pyrazol-1-yl}-1-(methylsulfonyl)azetidin-3-yl]acetonitrile]
